One data set has as its target T1, human erythrocyte AChE (Homo sapiens, UniProt P22303).
T1 construct: Human erythrocyte acetylcholinesterase (AChE, EC 3.1.1.7); purchased Sigma-Aldrich (Saint Louis, MO, USA); host or cells: human erythrocytes
Description: Inhibition of AChE (Ellman's colorimetric assay). Type of data set: biochemical. The following applies: read-out: AChE % inhibition at 20 μM. An excerpt: (§1) Given the available literature data on the ability of pyrazole derivatives to inhibit acetylcholinesterase (AChE) and human carboxylesterase-1 (CES), we performed an investigation of the esterase profile for new compounds 1a–j and 4a–j, including an evaluation of their inhibitory effect on the standard enzymes set: human erythrocyte AChE, equine serum butyrylcholinesterase (BChE), and porcine liver CES (Table 2). The applicability of this set of enzymes was shown by us earlier.
(§2) Human erythrocyte acetylcholinesterase (AChE, EC 3.1.1.7), equine serum butyrylcholinesterase (BChE, EC 3.1.1.8), porcine liver carboxylesterase (CES, EC 3.1.1.1), acetylthiocholine iodide (ATCh), butyrylthiocholine iodide (BTCh), 4-nitrophenol acetate (4-NPA), and 5,5′-dithio-bis-(2-nitrobenzoic acid) (DTNB) were purchased from Sigma-Aldrich (Saint Louis, MO, USA).
(§3) All the kinetic experiments were performed under standard conditions, according to the protocol of IPAC RAS for a reversible inhibitors study.
(§4) Ellman’s colorimetric assay was used to measure AChE and BChE activity in 0.1 M K/Na phosphate buffer at pH 7.5, 25 °C [86]. Final concentrations of reactants were 0.33 mM DTNB, 0.02 unit/mL of AChE or BChE, and 1 mM of substrate (ATCh or BTCh, respectively). Reagent blanks consisted of reaction mixtures without enzyme to assess non-enzymatic hydrolysis of substrates. Porcine liver CES activity was assessed colorimetrically in 0.1 M K/Na phosphate buffer with pH 8.0 at 25 °C, by measuring the absorbance of 4-nitrophenol at 405 nm. Final enzyme and substrate (4-NPA) concentrations were 0.02 unit/mL and 1 mM, respectively. Reagent blanks included all constituents except enzyme.
(§5) Test compounds were dissolved in DMSO. Reaction mixtures contained a final DMSO concentration of 2% (v/v). Enzyme inhibition was first assessed at a single concentration of 20 µM for each compound after a 10 min incubation at 25 °C in three separate experiments. Compounds inhibiting the enzyme by more than 30% were then selected for determination of the IC50 (inhibitor concentration resulting in 50% inhibition of control enzyme activity). […] Substrate was then added, and residual enzyme activity relative to an inhibitor-free control was measured using a FLUOStar Optima microplate reader (LabTech, Ortenberg, Germany).
In general terms: In Ellman's method for cholinesterases, released thiocholine reacts with DTNB.

The nature of data set [1]: ORAC-FL (oxygen radical absorbance capacity) assay. It is filed as biochemical. Particulars: mean ± SEM, n = 3, 2 h, 10 μM compound and Trolox. The text has this: In the oxygen radical absorbance capacity (ORAC-FL) assay, 2,2′-azobis-(2-methylpropionamidine) dihydrochloride (AAPH) is used as a free peroxyl radical generator, and fluorescein (FL) is used as a fluorescent probe. The method is based on measuring the decrease in the intensity of fluorescence with time, which characterizes the degree of decay of the fluorescent probe under the influence of peroxyl radicals. In the presence of antioxidants, the degree of decay of the fluorescent probe decreases and, accordingly, the fluorescence intensity increases. The results are expressed as TE (Trolox equivalents).
The ORAC assay utilizes a biologically relevant radical source, 2,2′-azobis(2-amidinopropane) dihydrochloride (AAPH)-derived peroxyl radicals. Thus, it is a more physiologically relevant assay than ABTS and FRAP.
The oxygen radical absorbance capacity (ORAC) was determined by the ability of compounds to protect fluorescein (FL) from peroxyl radicals that are generated by AAPH according to the known method with minor variations. The reaction was carried out at 37 °C in black 96-well plates (SPL life sciences), and the final volume of the reaction mixture was 200 µL per well. The fluorescence was recorded by Tecan M1000 PRO microplate reader (Switzerland) at 485 nm excitation and 520 nm emission.
The 0.7 mM fluorescein sodium salt stock solution in PBS pH 7.4 (137 mM sodium chloride, 2.7 mM potassium chloride, and 10 mM phosphate buffer) was prepared and stored at 4–5 °C no longer than one month. An aliquot of the fluorescein stock solution was further diluted with PBS immediately before each assay to yield a 70 nM working solution. The 133 mM AAPH solution in PBS was prepared immediately before use. The test compounds and Trolox standard were dissolved in DMSO to 400 μM. The final concentration was 10 μM for all of the samples.
The blank was composed of 15 μL PBS pH 7.4, 5 μL DMSO (final concentration: 2.5% (v/v)), 120 μL FL, and 60 μL AAPH, and it was included in each assay. PBS pH 7.4 (15 μL), antioxidant (the test compound or Trolox, 5 μL), and FL (120 μL, final concentration: 42 nM) solutions were placed in a black 96-well microplate and were pre-incubated for 15 min at 37 °C. AAPH solution (60 μL, final concentration 40 mM) was then added rapidly using a multichannel pipette. The fluorescence was recorded every minute for 2 h. A Trolox standard curve was also obtained in each assay. All reactions were carried out in quadruplicate, and two to four independent assays were performed for each sample.
Antioxidant curves (fluorescence vs. time) were first normalized to the curve of the blank (without antioxidant) corresponding to the same assay, and the net AUC corresponding to a sample was calculated by subtracting the AUC corresponding to the blank. The ORAC value was obtained by dividing the latter curve by the Trolox curve obtained in the same assay at 10 μM concentrations of compounds and Trolox. Final ORAC values, Trolox equivalents (TE), were expressed as μmol test compounds per μmol Trolox, where the value of TE for Trolox was taken as 1. Data were expressed as means ± SEM.

Data set [2] deals with T2, equine serum butyrylcholinesterase (BChE) (Equus caballus, UniProt P81908).
T2 construct: equine serum butyrylcholinesterase (BChE, EC 3.1.1.8); purchased Sigma-Aldrich (Saint Louis, MO, USA); host or cells: equine serum
T2 sequence (P81908 whole entry): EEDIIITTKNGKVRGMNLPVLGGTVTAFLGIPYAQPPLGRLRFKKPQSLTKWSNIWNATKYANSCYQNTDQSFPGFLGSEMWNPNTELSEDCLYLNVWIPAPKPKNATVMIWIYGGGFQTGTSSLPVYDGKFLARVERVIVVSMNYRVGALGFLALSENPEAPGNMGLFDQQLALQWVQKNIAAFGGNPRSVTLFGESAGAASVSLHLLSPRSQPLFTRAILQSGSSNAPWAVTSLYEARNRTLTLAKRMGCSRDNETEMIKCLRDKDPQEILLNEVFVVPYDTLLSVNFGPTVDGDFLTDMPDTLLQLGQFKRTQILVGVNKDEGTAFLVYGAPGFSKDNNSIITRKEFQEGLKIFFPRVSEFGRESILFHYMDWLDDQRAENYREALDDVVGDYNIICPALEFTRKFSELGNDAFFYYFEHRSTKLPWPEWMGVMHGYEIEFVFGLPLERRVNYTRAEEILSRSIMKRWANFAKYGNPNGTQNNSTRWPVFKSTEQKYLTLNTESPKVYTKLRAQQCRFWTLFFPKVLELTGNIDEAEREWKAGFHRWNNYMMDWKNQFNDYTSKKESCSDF
Description: Inhibition of BChE (Ellman's colorimetric assay). It is filed as biochemical. The following applies: ± SEM, n = 3, 10 min incubation 25 °C.
From the text: as §1, §2, §3, §4, §5

Data set [3] relates to normal human dermal fibroblast (NHDF) cultures. Description: Cytotoxicity, MTT/formazan assay. It is filed as cell-based. Particulars: 72 h, MTT. The method, then:
Cytotoxicity of compounds was evaluated using a culture of human dermal fibroblasts, which were isolated in the Laboratory of Cell Cultures of the Institute of Medical Cell Technologies, Ekaterinburg, Russia. Cells were seeded in 96-well plates in the inoculum dose of 2 × 10^5 cells/mL and cultured for 24 h in Dulbecco’s Modified Eagle Medium (DMEM), with 1% (w/v) glutamine in the presence of 10% (v/v) fetal bovine serum and gentamicin (50 mg/L) at 37 °C, with a humidified atmosphere of 5% (v/v) CO2. Then, compounds, which were solved in DMSO, were added to the wells at the final concentrations of 0.1, 1, 10, and 100 µM. The cells were incubated with compounds for 72 h, after which cell viability was assessed using the standard MTT assay. The assay was carried out in four replicates with negative (culture medium) and positive (solution of the cytotoxic drug camptothecin at a concentration of 3 mM) controls, and the solvent control (DMSO). […] The MTT staining of control cells was taken as 100%.

Setting [4] is: 20 μM, ± SEM, n = 3, 10 min incubation 25 °C.

Several values for one entry are separate records, joined by “and”; a condition that tells them apart may be missing. Equal entries are not always repeated. Structures can show the parent of a compound that is named as a salt. Where two headings read alike, the source gives them in different places.

T1 sequence (P22303 32-617 isoform P22303-2 limits assumed): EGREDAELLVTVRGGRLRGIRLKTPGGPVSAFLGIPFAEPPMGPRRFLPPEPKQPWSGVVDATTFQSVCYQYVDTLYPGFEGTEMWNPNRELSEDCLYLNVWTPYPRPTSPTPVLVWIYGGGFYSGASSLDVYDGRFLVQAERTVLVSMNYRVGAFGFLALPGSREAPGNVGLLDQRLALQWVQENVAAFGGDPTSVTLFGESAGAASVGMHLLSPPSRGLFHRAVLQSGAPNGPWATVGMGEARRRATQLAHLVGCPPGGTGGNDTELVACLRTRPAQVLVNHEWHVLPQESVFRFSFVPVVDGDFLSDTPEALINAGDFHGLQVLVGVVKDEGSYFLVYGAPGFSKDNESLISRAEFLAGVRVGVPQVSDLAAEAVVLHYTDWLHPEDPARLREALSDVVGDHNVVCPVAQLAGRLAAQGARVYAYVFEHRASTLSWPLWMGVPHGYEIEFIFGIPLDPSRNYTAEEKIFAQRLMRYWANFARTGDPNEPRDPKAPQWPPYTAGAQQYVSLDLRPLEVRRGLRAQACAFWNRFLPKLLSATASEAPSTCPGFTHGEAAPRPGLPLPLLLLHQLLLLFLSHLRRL

Consider `Cl.Nc1c(C(F)(F)C(F)(F)C(F)(F)C(F)(F)F)n[nH]c1O.O` [4i, 4-Amino-3-(nonafluorobutyl)-1H-pyrazol-5-ol hydrate hydrochloride], for which, on human erythrocyte AChE, the inhibition (commonly the drop in the measured response relative to a control, in per cent) at 20 µM was found to be 5.1 ± 0.9%. The “ORAC-FL TE (Trolox equivalent)” value in data set [1] came out at 1.83 ± 0.02 TE.
As to `Cl.Nc1c(C(F)(F)F)nn(-c2ccccc2)c1O` [4a, 4-Amino-3-(trifluoromethyl)-1-phenyl-1H-pyrazol-5-ol hydrochloride], the inhibition at 20 µM amounted to 7.9 ± 1.5% on human erythrocyte AChE (setting [4]) and 6.9 ± 1.1% in data set [2]. For the same compound, in data set [1], the “ORAC-FL TE (Trolox equivalent)” value was 3.49 TE and 3.49 ± 0.16 TE.
On to `Nc1c(C(F)(F)C(F)(F)C(F)(F)C(F)(F)F)nn(-c2ccccc2)c1O` [4c, 5-Hydroxy-1-phenyl-3-(nonafluorobuthyl)-1H-pyrazol-4-ammonium hydrochloride], for which the inhibition at 20 µM on human erythrocyte AChE amounted to 19.2 ± 1.7%; in data set [2], 10.3 ± 1.2%. In addition, the “ORAC-FL TE (Trolox equivalent)” value in data set [1] worked out at 2.82 ± 0.2 TE.
As to `Cl.Nc1c(C(F)(F)C(F)(F)F)n[nH]c1O.O` [4g, 4-Amino-3-(pentafluoroethyl)-1H-pyrazol-5-ol hydrate hydrochloride], the inhibition at 20 µM is 17.3 ± 1.7% at human erythrocyte AChE and 8.9 ± 1.4% in data set [2]. Moreover, the “ORAC-FL TE (Trolox equivalent)” value in data set [1] was 0.54 ± 0.03 TE.
With `Cl.Nc1c(C(F)(F)C(F)(F)C(F)(F)F)n[nH]c1O.O` [4h, 4-Amino-3-(heptafluoropropyl)-1H-pyrazol-5-ol hydrate hydrochloride], the inhibition at 20 µM in data set [2] turned out to be 3.4 ± 0.9%. Further, the “ORAC-FL TE (Trolox equivalent)” value in data set [1] was determined as 0.63 ± 0.04 TE.
In the case of `Cl.Nc1c(C(F)(F)C(F)(F)F)nn(-c2ccccc2)c1O.O` [4b, 4-Amino-3-(pentafluoroethyl)-1-phenyl-1H-pyrazol-5-ol hydrate hydrochloride], the inhibition at 20 µM at human erythrocyte AChE stood at 4.4 ± 1.1%; in data set [2], 12.8 ± 1.5%. Besides, the “ORAC-FL TE (Trolox equivalent)” value in data set [1] is 2.12 ± 0.17 TE.
As for `Cl.Nc1c(C(F)(F)F)n[nH]c1O` [4e, 4-Amino-3-(trifluoromethyl)-1H-pyrazol-5-ol hydrochloride], the inhibition at 20 µM at human erythrocyte AChE (setting [4]) was found to be 9.7 ± 1.5%; in data set [2], 5.6 ± 1.5%. For the same compound, the “ORAC-FL TE (Trolox equivalent)” value in data set [1] was found to be 0.90 ± 0.19 TE.
Regarding `O=C1NN=C(C(F)(F)F)/C1=N/O` [1e], the “ORAC-FL TE (Trolox equivalent)” value in data set [1] is given as 0.98 ± 0.03 TE.
For `Cc1nn(-c2ccccc2)c(O)c1N.Cl.O` [4d, 4-Amino-3-methyl-1-phenyl-1H-pyrazol-5-ol hydrochloride hydrate], the inhibition at 20 µM is 6.5 ± 1.2% at human erythrocyte AChE and 5.1 ± 1.3% in data set [2]. Also, the entries for the “ORAC-FL TE (Trolox equivalent)” value in data set [1] and in data set [1] (listed as APH) were 4.39 ± 0.04 TE and 4.39 TE, respectively. Further, the “Cytotoxicity against NHDF cell culture” value was “neither of the compounds 4d,j showed cytotoxicity” in data set [3] (100 µM) and “not cytotoxic” in data set [3] (100 µM, listed as APH).
Regarding `O=C1NN=C(C(F)(F)C(F)(F)F)/C1=N/O` [1g], the “ORAC-FL TE (Trolox equivalent)” value in data set [1] turned out to be 1.87 ± 0.04 TE.
For `CC1=NNC(=O)/C1=N\O` [1j], the inhibition at 20 µM in data set [2] worked out at 3.8 ± 1.3%. In addition, the “ORAC-FL TE (Trolox equivalent)” value in data set [1] was found to be 2.85 ± 0.28 TE.
In turn, `Cc1n[nH]c(O)c1N.Cl` [4j, 4-Amino-3-methyl-1H-pyrazol-5-ol hydrochloride] registered an inhibition at 20 µM in data set [2] of 13.9 ± 1.6%. In data set [1], the “ORAC-FL TE (Trolox equivalent)” value came to 2.06 ± 0.16 TE. For the same compound, the “Cytotoxicity against NHDF cell culture” value in data set [3] (100 µM) is recorded as “neither of the compounds 4d,j showed cytotoxicity”.
For the compound “3-methyl-1-phenyl-2-pyrazolin-5-one [EDA, reference compound]”, in data set [2], the “BChE % inhibition at 20 μM” value worked out at 4.6 ± 0.2%. For the same compound, in data set [1], the “ORAC-FL TE (Trolox equivalent)” value is 3.71 TE and 3.71 ± 0.06 TE. For the same compound, the “Inhibitory Capability (IC, %) on NHDF” value stood at 3.74 ± 0.05% in data set [3] (1 µM), 19.9 ± 0.8% in data set [3] (10 µM) and 32.8 ± 0.6% in data set [3] (100 µM).
On to `Oc1cc(C(F)(F)F)nn1-c1ccccc1` [CF3-EDA, 3-trifluoromethyl-1-phenylpyrazol-5-ol, reference compound], for which the “ORAC-FL TE (Trolox equivalent)” value in data set [1] is 3.89 TE and 3.89 ± 0.04 TE.

Source of the values: publication PMC9699072 (Molecules, 2022).
